Assay results as given in US20050271588A1, “Liposome targeting of matrix metalloproteinase inhibitors” (priority 2001, published 2005).
Positions of bridges follow the written chain, without caps; N, C: chain ends. Residues, ends and D or L forms follow the SMILES beside them.

How the values were obtained:
[1] = Assay for lipid mixing (liposome fusion, NBD-PE/DPPRho); type: physicochemical; conditions: within 15 min
Procedure: (§1) The extent of exposure of Trp to the aqueous phase was studied using I— as a collisional quencher (Lakowicz, 1999). The extent of quenching was calculated by using the equation: F0/F=1+k[Q]=1+kqτ0[Q] where F0 and F are Trp fluorescence intensities at 345 nm in the absence and presence of the quencher, Q, τ0 is Trp fluorescence lifetime in the absence of the quencher, k is the Stern-Volmer constant (obtained from the slope of the linear fit of the data). Fluorescence of Trp in CTT (5 μM) and its quenching were measured in the absence and presence of POPC/POPE (80:20, mol/mol) LUVs (final lipid concentration of 0.5 mM). The results were corrected for background caused by PBS and liposomes. Assay for lipid mixing. The ability of the CTT, CLP, STT, and CWL peptides to induce liposome fusion was assessed by measuring lipid mixing, as described earlier (Struck et al., 1981). In brief, NBD-PE (X=0.01) and DPPRho (X=0.01) were incorporated into liposomes (POPC/POPE, 78/20, mol/mol). Due to the spectral overlap of NBD-PE (donor) emission and DPPRho (acceptor) absorption resonance energy transfer between these dyes is highly efficient. As liposomes containing NBD-PE and DPPRho are mixed with non-labeled liposomes, fusion is observed as an increase in the emission intensity of NBD-PE due to the dilution of probes. Excitation and emission wavelengths for NBD-PE at 430 nm and 530 nm were used. All fluorescence measurements were done at 37° C.

MMP-2 and MMP-9 = conditions: cited from earlier work
tumor = conditions: mouse models; cited from earlier work
MMP-2 = molecular target: T1, MMP-2 (Homo sapiens, UniProt P08253); assay: Casein zymography, inhibition of MMP-2; type: biochemical; conditions: 85 μM peptide
T1 construct: purchased Boehringer Mannheim GmbH (Germany)
T1 sequence (P08253 110-660): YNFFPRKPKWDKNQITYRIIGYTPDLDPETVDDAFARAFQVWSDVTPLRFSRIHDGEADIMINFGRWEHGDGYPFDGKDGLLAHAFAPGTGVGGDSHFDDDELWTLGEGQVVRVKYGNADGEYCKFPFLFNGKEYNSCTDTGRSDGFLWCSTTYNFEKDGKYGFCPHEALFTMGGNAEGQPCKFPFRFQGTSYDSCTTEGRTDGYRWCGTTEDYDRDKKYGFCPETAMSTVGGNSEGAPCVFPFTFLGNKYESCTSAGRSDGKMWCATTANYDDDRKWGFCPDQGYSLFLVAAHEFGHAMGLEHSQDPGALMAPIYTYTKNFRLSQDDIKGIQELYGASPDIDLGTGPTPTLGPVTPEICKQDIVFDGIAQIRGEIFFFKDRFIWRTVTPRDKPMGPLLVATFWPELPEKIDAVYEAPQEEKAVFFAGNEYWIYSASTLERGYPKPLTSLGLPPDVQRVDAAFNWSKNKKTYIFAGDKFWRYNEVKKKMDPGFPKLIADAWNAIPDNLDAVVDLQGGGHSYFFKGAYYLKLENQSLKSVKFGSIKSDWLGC
Procedure: Assay for gelatinases. Inhibition of MMP-9 and MMP-2 by the different synthetic peptides was measured using casein zymography (Halinen et al., 1996). MMP-9 was purified as described (Sorsa et al., 1997). Subsequently, MMP-2 (2.5 μg) or MMP-9 (2.5 μg) was run on a 10% SDS-PAGE containing two mg/ml casein. The gel was first washed in Triton X-100 containing buffer to remove SDS, and it was cut into five slices which were immersed into peptide (CTT, CLP, CWL or STT) containing solutions (85 μM). After incubation for 48 hrs at 37° C., the gels were stained with Coomassie blue, scanned, and the digested areas quantitated using image analysis (Global Lab Image 3.2, Data Translation Inc. and Acuity Imaging Inc., Marlboro, Mass., USA).

U937 leukemia cells = assay: Association of DPPRho-labelled liposomes with cells; type: cell-based; conditions: U937, 5 min
Procedure: Assays for liposome uptake by cells. In order to study the effects of the different peptides on the cellular uptake of liposomes, rhodamine-labelled phospholipid analog (DPPRho) was incorporated into liposomes as a tracer, to yield a composition POPC/POPE/DPPRho (80:19:1, mol/mol). The indicated peptides were mixed with LUVs and subsequently added to cells cultured in microtiter well plates. After an incubation for 5 min at 38° C. liposomes not bound to the cells were removed by rinsing the cells three times with cold PBS. The relative amount of DPPRho associated with the cells was determined using Tecan Spectrafluor Plus microplate reader (Tecan, Hombrechtigon, Switzerland) with excitation at 535 nm and emission at 595 nm.

[2] = Trp quenching by I- (Stern-Volmer); type: physicochemical; conditions: I- quencher
Procedure: as §1, with “Excitation and emission wavelengths for NBD-PE at 430 nm and 530 nm were used.” left out

[3] = Trp fluorescence emission anisotropy with liposomes; type: physicochemical; conditions: 37° C.
Procedure: Fluorescence polarization of the Trp residue of CTT as a function of increasing concentration of liposomes was measured using rotating polarizers in the excitation and emission beams, with a bandpass of 10 nm. The results are expressed as emission anisotropy (Lakowicz, 1999) calculated as follows: r=(I∥−I⊥)/(I∥+2I⊥). In this equation I⊥ and I∥ represent the emission intensity perpendicular and parallel, respectively, to the excitation polarizer.

Lipid mixing / vesicle fusion (NBD-PE emission) [1]: lack of lipid mixing
Inhibition of MMP-2 activity (MMP-2): approx. 70%
Stern-Volmer constant ([2]; absence of liposomes): 0.0087
Stern-Volmer constant ([2]; presence of liposomes): 0.0034
Trp emission anisotropy r ([3]; 230 μM phospholipid, CTT 5 μM): 0.349
Trp emission anisotropy r ([3]; absence of liposomes, CTT 5 μM in PBS): 0.065
Structure (SMILES): CC(C)C[C@@H]1NC(=O)[C@H]([C@@H](C)O)NC(=O)[C@H](Cc2ccccc2)NC(=O)CNC(=O)[C@H](Cc2c[nH]c3ccccc23)NC(=O)[C@H](Cc2c[nH]cn2)NC(=O)[C@H]([C@@H](C)O)NC(=O)[C@H]([C@@H](C)O)NC(=O)[C@@H](N)CSSC[C@@H](C(=O)O)NC1=O [CTT] (H-CTTHWGFTLC-OH; disulfide 1-10; N-terminus and C-terminus assumed)
Selective inhibition of MMP family members (MMP-2 and MMP-9): selectively inhibit the activity of MMP-2 and MMP-9
Tumor progression in vivo (tumor): inhibited
Increase of DPPRho marker bound to cells with peptide vs without (U937 leukemia cells): approx. 3.7 fold
